Data reported in ChEMBL document CHEMBL3046069, “Anti-inflammatory effects of two new methyl and morpholine derivatives of diphenhydramine on rats” (2012).
Activity calls are given as the source filed them. No cut-off for these calls is given here.

Key:
[1] = test system: Rattus norvegicus; experiment: Anti-inflammatory activity in Rattus norvegicus Wistar (rat) assessed as inhibition of […]-induced ear edema administered 30 min prior to […] challenge measured after 30 min by Evans blue dye-based spectrophotometric analysis relative to control; type: functional, organism-based
[2] = test system: Rattus norvegicus; experiment: Anti-inflammatory activity in Rattus norvegicus Wistar (rat) assessed as inhibition of histamine-induced dye extrusion from plantar surface of paws at 25 mg/kg, ip administered 30 min […] measured after 30 min by Evans blue dye-based spectroscopic analysis; type: functional; conditions: route intraperitoneal
[3] = test system: Rattus norvegicus; experiment: Anti-inflammatory activity in Rattus norvegicus Wistar (rat) assessed as inhibition of acetic acid-induced dye extrusion into peritonial cavity administered 30 min prior to acetic acid challenge measured after 30 min by Evans blue dye-based spectrophotometric analysis relative to control; type: functional
[4] = test system: Rattus norvegicus; experiment: Anti-inflammatory activity in Rattus norvegicus Wistar (rat) assessed as cotton pellet-induced dry weight of granuloma administered 7 days post cotton pellet implantation measured on day 8 (reference value: […]); type: functional
[5] = test system: Rattus norvegicus; experiment: Anti-inflammatory activity in Rattus norvegicus Wistar (rat) assessed as inhibition of formalin-induced dye extrusion from plantar surface of paws at 25 mg/kg, ip administered 30 min prior to formalin challenge measured after 30 min by Evans blue dye-based spectrophotometric analysis; type: functional; conditions: route intraperitoneal
[6] = test system: Rattus norvegicus; experiment: Anti-inflammatory activity in Rattus norvegicus Wistar (rat) assessed as inhibition of histamine-induced paw edema at 25 mg/kg, ip administered 30 min […] measured at 1 hr relative to control; type: functional; conditions: route intraperitoneal
[7] = test system: Rattus norvegicus; experiment: Anti-inflammatory activity in Rattus norvegicus Wistar (rat) assessed as inhibition of formalin-induced paw edema at 25 mg/kg, ip administered 30 min prior to formalin challenge measured at 1 hr relative to control; type: functional; conditions: route intraperitoneal

SMILES	inhibition [1]	inhibition in vivo at 25 mg/kg [2] [%]	inhibition (INH) [3] [%]	Activity [4] [mg]	inhibition in vivo at 25 mg/kg [5] [%]	inhibition [3]	inhibition in vivo at 25 mg/kg [6] [%]	inhibition in vivo at 25 mg/kg [7] [%]
Cc1ccc(C(OCCN2CCOCC2)c2ccc(C)cc2)cc1	inactive	60	63.26	71	60	–	–	–
CN(C)CCOC(c1ccccc1)c1ccc(Br)cc1 (configuration not stated) [BROMODIPHENHYDRAMINE]	inactive	–	–	–	–	Active	22.4	14.3
Cc1ccc(C(OCCN(C)C)c2ccc(C)cc2)cc1 [DI(P-TOLYL)(DIMETHYLAMINOETHOXY)METHANE]	inactive	57.1	65.3	73.2	66.7	–	40.8	34.7
CN(C)CCOC(c1ccccc1)c1ccccc1 [DIPHENHYDRAMINE]	–	–	–	76.2	–	–	–	–
